# Assay results from ChEMBL document CHEMBL1201862, “PubChem BioAssay data set” (2004).
#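 Cultured in 96-well plates, cells were exposed to test compound for 48 hours across five concentrations. GI50 marks 50% less growth.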 Activity calls are given as the source filed them. Rule as the data show it: active = GI50 up to about 1.1 µM and inactive = higher.
# Legend:
# Assay in all cases: growth of human tumour cells (NCI), 48 h
# HCT-15 = tested on: HCT-15
# NCI-H522 = tested on: NCI-H522
# MDA-MB-231 = tested on: MDA-MB-231
# HOP-92 = tested on: HOP-92
# SK-OV-3 = tested on: SK-OV-3
# PC-3 = tested on: PC-3
# HT-29 = tested on: HT-29
# MCF7 = tested on: MCF7
# KM12 = tested on: KM12
# K562 = tested on: K562
# UACC-257 = tested on: UACC-257
# EKVX = tested on: EKVX
# NCI-H23 = tested on: NCI-H23
# MDA-MB-435 = tested on: MDA-MB-435
# IGROV-1 = tested on: IGROV-1
# 786-0 = tested on: 786-0
# SNB-75 = tested on: SNB-75
# MDA-N = tested on: MDA-N
# HCC 2998 = tested on: HCC 2998
# SW-620 = tested on: SW-620
# COLO 205 = tested on: COLO 205
# ACHN = tested on: ACHN
# TK-10 = tested on: TK-10
# CCRF-CEM = tested on: CCRF-CEM
# MOLT-4 = tested on: MOLT-4
# NCI/ADR-RES = tested on: NCI/ADR-RES
# LOX IMVI = tested on: LOX IMVI
# RPMI-8226 = tested on: RPMI-8226
# BT-549 = tested on: BT-549
# SNB-19 = tested on: SNB-19
# A498 = tested on: A498
# SK-MEL-5 = tested on: SK-MEL-5
# A549 = tested on: A549
# HCT-116 = tested on: HCT-116
# NCI-H460 = tested on: NCI-H460
# SK-MEL-2 = tested on: SK-MEL-2
# SK-MEL-28 = tested on: SK-MEL-28
# DU-145 = tested on: DU-145
# HL-60 = tested on: HL-60
# HOP-62 = tested on: HOP-62
# Malme-3M = tested on: Malme-3M
# NCI-H226 = tested on: NCI-H226
# OVCAR-4 = tested on: OVCAR-4
# UACC-62 = tested on: UACC-62
# OVCAR-5 = tested on: OVCAR-5
# M14 = tested on: M14
# U-251 = tested on: U-251
# OVCAR-3 = tested on: OVCAR-3
# OVCAR-8 = tested on: OVCAR-8
# SF-268 = tested on: SF-268
# SF-295 = tested on: SF-295
# UO-31 = tested on: UO-31
# CAKI-1 = tested on: CAKI-1
# RXF 393 = tested on: RXF 393
# SR = tested on: SR
# SF-539 = tested on: SF-539
# SN12C = tested on: SN12C
# T47D = tested on: T47D
structure (smiles),measurement,setting,value
N#CC1C(=O)NC23CCCCC2C1c1ccccc1O3 (stereo not given),GI50,HCT-15,> 100 µM
same,GI50,NCI-H522,> 100 µM (inactive)
same,GI50,MDA-MB-231,> 100 µM (inactive)
same,GI50,HOP-92,0.241 µM (active)
same,GI50,SK-OV-3,> 100 µM (inactive)
same,GI50,PC-3,> 100 µM (inactive)
same,GI50,HT-29,> 100 µM (inactive)
same,GI50,MCF7,> 100 µM (inactive)
same,GI50,KM12,> 100 µM (inactive)
same,GI50,K562,> 100 µM (inactive)
same,GI50,UACC-257,> 100 µM (inactive)
same,GI50,EKVX,> 100 µM (inactive)
same,GI50,NCI-H23,> 100 µM (inactive)
same,GI50,MDA-MB-435,> 100 µM (inactive)
same,GI50,IGROV-1,> 100 µM (inactive)
same,GI50,786-0,> 100 µM (inactive)
same,GI50,SNB-75,> 100 µM (inactive)
same,GI50,MDA-N,> 100 µM (inactive)
same,GI50,HCC 2998,> 100 µM (inactive)
same,GI50,SW-620,> 100 µM (inactive)
same,GI50,COLO 205,> 100 µM (inactive)
same,GI50,ACHN,> 100 µM (inactive)
same,GI50,TK-10,> 100 µM (inactive)
same,GI50,CCRF-CEM,74.8 µM (inactive)
same,GI50,MOLT-4,> 100 µM (inactive)
same,GI50,NCI/ADR-RES,> 100 µM (inactive)
same,GI50,LOX IMVI,> 100 µM (inactive)
same,GI50,RPMI-8226,> 100 µM (inactive)
same,GI50,BT-549,> 100 µM (inactive)
same,GI50,SNB-19,> 100 µM (inactive)
same,GI50,A498,> 100 µM (inactive)
same,GI50,SK-MEL-5,> 100 µM (inactive)
same,GI50,A549,> 100 µM (inactive)
same,GI50,HCT-116,> 100 µM (inactive)
same,GI50,NCI-H460,> 100 µM (inactive)
same,GI50,SK-MEL-2,> 100 µM (inactive)
same,GI50,SK-MEL-28,53.5 µM (inactive)
same,GI50,DU-145,> 100 µM (inactive)
same,GI50,HL-60,> 100 µM (inactive)
same,GI50,HOP-62,> 100 µM (inactive)
same,GI50,Malme-3M,> 100 µM (inactive)
same,GI50,NCI-H226,> 100 µM (inactive)
same,GI50,OVCAR-4,> 100 µM (inactive)
same,GI50,UACC-62,> 100 µM (inactive)
same,GI50,OVCAR-5,> 100 µM (inactive)
same,GI50,M14,> 100 µM (inactive)
same,GI50,U-251,> 100 µM (inactive)
same,GI50,OVCAR-3,> 100 µM (inactive)
same,GI50,OVCAR-8,> 100 µM (inactive)
same,GI50,SF-268,2.1 µM (inactive)
same,GI50,SF-295,> 100 µM (inactive)
same,GI50,UO-31,> 100 µM (inactive)
same,GI50,CAKI-1,> 100 µM (inactive)
same,GI50,RXF 393,> 100 µM (inactive)
N#C/C(=C\c1cc(Cl)cc(Cl)c1)c1ccccn1,GI50,HCT-15,4.75 µM
same,GI50,NCI-H522,9.44 µM (inactive)
same,GI50,SK-OV-3,4.52 µM (inactive)
same,GI50,PC-3,11.3 µM (inactive)
same,GI50,HT-29,18.2 µM (inactive)
same,GI50,MCF7,5.61 µM (inactive)
same,GI50,KM12,9.59 µM (inactive)
same,GI50,K562,3.95 µM (inactive)
same,GI50,UACC-257,82.8 µM (inactive)
same,GI50,EKVX,3.46 µM (inactive)
same,GI50,NCI-H23,6.35 µM (inactive)
same,GI50,IGROV-1,12.4 µM (inactive)
same,GI50,786-0,21.5 µM (inactive)
same,GI50,SNB-75,5.55 µM (inactive)
same,GI50,MDA-N,10.1 µM (inactive)
same,GI50,HCC 2998,31 µM (inactive)
same,GI50,SW-620,15.6 µM (inactive)
same,GI50,SR,6.27 µM (inactive)
same,GI50,COLO 205,31.8 µM (inactive)
same,GI50,ACHN,64.1 µM (inactive)
same,GI50,TK-10,58.5 µM (inactive)
same,GI50,CCRF-CEM,3.63 µM (inactive)
same,GI50,MOLT-4,5.14 µM (inactive)
same,GI50,NCI/ADR-RES,3.93 µM (inactive)
same,GI50,RPMI-8226,> 100 µM (inactive)
same,GI50,BT-549,4.71 µM (inactive)
same,GI50,SNB-19,> 100 µM (inactive)
same,GI50,A498,0.757 µM (active)
same,GI50,SK-MEL-5,8.51 µM (inactive)
same,GI50,A549,18.9 µM (inactive)
same,GI50,HCT-116,34.3 µM (inactive)
same,GI50,NCI-H460,7.83 µM (inactive)
same,GI50,SK-MEL-2,92 µM (inactive)
same,GI50,SK-MEL-28,8.63 µM (inactive)
same,GI50,DU-145,70.6 µM (inactive)
same,GI50,HL-60,6.27 µM (inactive)
same,GI50,SF-539,19.1 µM (inactive)
same,GI50,HOP-62,20 µM (inactive)
same,GI50,Malme-3M,> 100 µM (inactive)
same,GI50,NCI-H226,5.47 µM (inactive)
same,GI50,OVCAR-4,53 µM (inactive)
same,GI50,UACC-62,12 µM (inactive)
same,GI50,OVCAR-5,> 100 µM (inactive)
same,GI50,M14,35.5 µM (inactive)
same,GI50,U-251,7.94 µM (inactive)
same,GI50,OVCAR-3,26.1 µM (inactive)
same,GI50,OVCAR-8,18 µM (inactive)
same,GI50,SF-268,27.7 µM (inactive)
same,GI50,SN12C,> 100 µM (inactive)
same,GI50,SF-295,10.5 µM (inactive)
same,GI50,UO-31,43.8 µM (inactive)
same,GI50,CAKI-1,13.6 µM (inactive)
same,GI50,RXF 393,5.11 µM (inactive)
O=C1CCN2c3ccccc3[C@H]3Cc4cccc(c4[C@@H]2C3)CCO1,GI50,HCT-15,26.9 µM
same,GI50,NCI-H522,28.4 µM (inactive)
same,GI50,MDA-MB-231,83 µM (inactive)
same,GI50,HOP-92,31 µM (inactive)
same,GI50,SK-OV-3,51.2 µM (inactive)
same,GI50,PC-3,32 µM (inactive)
same,GI50,HT-29,36.6 µM (inactive)
same,GI50,MCF7,41.5 µM (inactive)
same,GI50,KM12,34.9 µM (inactive)
same,GI50,K562,21.8 µM (inactive)
same,GI50,UACC-257,29.4 µM (inactive)
same,GI50,EKVX,38.5 µM (inactive)
same,GI50,NCI-H23,35.3 µM (inactive)
same,GI50,MDA-MB-435,40.4 µM (inactive)
same,GI50,IGROV-1,22 µM (inactive)
same,GI50,786-0,41.8 µM (inactive)
same,GI50,SNB-75,27.4 µM (inactive)
same,GI50,MDA-N,26.2 µM (inactive)
same,GI50,T47D,36.7 µM (inactive)
same,GI50,HCC 2998,> 100 µM (inactive)
same,GI50,SW-620,35.3 µM (inactive)
same,GI50,SR,26.1 µM (inactive)
same,GI50,COLO 205,33.5 µM (inactive)
same,GI50,ACHN,44 µM (inactive)
same,GI50,TK-10,65.6 µM (inactive)
same,GI50,CCRF-CEM,28.8 µM (inactive)
same,GI50,MOLT-4,20.3 µM (inactive)
same,GI50,NCI/ADR-RES,23.6 µM (inactive)
same,GI50,LOX IMVI,34.6 µM (inactive)
same,GI50,RPMI-8226,31 µM (inactive)
same,GI50,BT-549,57.8 µM (inactive)
same,GI50,SNB-19,86.9 µM (inactive)
same,GI50,A498,56.5 µM (inactive)
same,GI50,SK-MEL-5,22.1 µM (inactive)
same,GI50,A549,33.9 µM (inactive)
same,GI50,HCT-116,21.6 µM (inactive)
same,GI50,NCI-H460,> 100 µM (inactive)
same,GI50,SK-MEL-2,38 µM (inactive)
same,GI50,SK-MEL-28,56.4 µM (inactive)
same,GI50,DU-145,68.4 µM (inactive)
same,GI50,HL-60,25.5 µM (inactive)
same,GI50,SF-539,79.3 µM (inactive)
same,GI50,HOP-62,56.2 µM (inactive)
same,GI50,Malme-3M,25.2 µM (inactive)
same,GI50,NCI-H226,32.9 µM (inactive)
same,GI50,OVCAR-4,57.1 µM (inactive)
same,GI50,UACC-62,43.5 µM (inactive)
same,GI50,OVCAR-5,> 100 µM (inactive)
same,GI50,M14,19.4 µM (inactive)
same,GI50,U-251,40.5 µM (inactive)
same,GI50,OVCAR-3,26.5 µM (inactive)
same,GI50,OVCAR-8,31.7 µM (inactive)
same,GI50,SF-268,72.4 µM (inactive)
same,GI50,SN12C,16.3 µM (inactive)
same,GI50,SF-295,32.4 µM (inactive)
same,GI50,UO-31,22.9 µM (inactive)
same,GI50,CAKI-1,41.9 µM (inactive)
same,GI50,RXF 393,47.4 µM (inactive)
